Experimental findings from paper PMC10732398 (PLOS Pathogens, 2023) are described below.

One assay deals with ⍺4β7 on RPMI8866 cells. Description: Flow cytometry: cross-inhibition of MAdCAM-Ig, VCAM-Ig and D1D2-Ig⍺tp binding to RPMI8866 cells. Set-up: species or system human. The note with it: increasing concentrations of unlabeled inhibitor, Fig 2C, 2D. The protocol:
Cis interactions between various integrins and leukocyte receptors are known to regulate immune cell functions. To determine whether CD4 inhibits MAdCAM-1 or VCAM-1 binding to ⍺4β7 we preincubated RPMI8866 cells with labelled MAdCAM-Ig or VCAM-Ig in the presence of increasing concentrations of unlabeled D1D2-Ig⍺tp. […] This implies that MAdCAM-1 and VCAM-1, acting in trans, may interfere with CD4-⍺4β7 interactions. What remains unknown is whether interactions between ⍺4β7 and CD4 impact CD4 migration into the TCR and subsequent interactions with MHC II (Fig 2E).
Fig 2 Cross-inhibition of MAdCAM-Ig, VCAM-Ig and D1D2-Ig⍺tp binding to ⍺4β7. Flow cytometric analysis of (A) PE -conjugated MAdCAM-Ig or (B) PE -conjugated VCAM-Ig binding to RPMI8866 cells pre-incubated with increasing concentrations of unlabeled D1D2-Igαtp. Cell preincubated with increasing concentrations of (C) unlabeled MAdCAM-Ig or (D) VCAM-Ig followed by PE -conjugated D1D2-Ig⍺tp. Y-axis indicates gMFI. Dashed line indicates gMFI in the absence of any inhibitor.
Cells were stained with fluoresceine conjugated mAbs or recombinant proteins using standard procedures preceded by Fc receptor blocking with human IgG. Buffers used were 10 mM HEPES 150 mM NaCl (HBS Buffer) with 100 μM CaCl2. […] Data were acquired using a FACSCanto II (BD Biosciences) and analyzed with FlowJo software (BD Biosciences). […]

Assay [1] deals with ⍺4β7 on primary CD8^+ T cells. Description: Flow cytometry: FAM-conjugated pCD4^165-178 binding to RA-treated primary CD8^+ T cells. Set-up: species or system human. The settings on record: FAM-Ttds-labelled peptide 1.25 μg/200,000 cells in 100 μl; presence or absence of Mn^++. From the text: To further investigate the interaction between pCD4^165-178 and ⍺4β7 we attached a fluorescein dye to its amino terminus via a trioxatridecan-succinamic acid (Ttds) linker (Fig 5A). A scrambled pCD4^165-178 was employed as a control. […] FIB504 and vedolizumab inhibited binding by ~50%. This inhibition pattern resembles the one we obtained when inhibiting D1D2-Ig⍺tp with the same antagonists (Fig 3). We conclude that the CD4 D2 G β-strand binds directly to the headpiece region of ⍺4β7 in a cation dependent manner. Support for this conclusion, in the form of site directed mutagenesis within the D2 G β-strand is provided below.
Fig 5 Direct binding of pCD4^165-178 to ⍺4β7 on primary T cells. (A) Sequence of FAM -conjugated pCD4^165-178 and a scrambled derivative (FAM-scr pCD4^165-178). (B) Flow-cytometry derived histogram of pCD4^165-178 binding to RA -cultured CD8^+ T cells. pCD4^165-178 in the presence (green), or absence of Mn^++(black). Unstained cells are shown (grey). (C) Binding of pCD4^165-178 and its scrambled derivative to CD8^+ T cells in the presence of MnCl2 as in panel B, and in the presence of ⍺4 and ⍺4β7 antagonists, as indicated. Y-axis indicates % cells bound. Error bars represent standard error from 3 independent experiments.
Cells were stained with fluoresceine conjugated mAbs or recombinant proteins using standard procedures preceded by Fc receptor blocking with human IgG. Buffers used were 10 mM HEPES 150 mM NaCl (HBS Buffer) with 100 μM CaCl2. 1 mM MnCl2 was also included, unless otherwise specified. Buffer without divalent cations included 0.1 mM EDTA. Unlabeled mAb or protein inhibitors were preincubated with cells or proteins at a 5X molar excess for 15 min on ice. FAM labeled peptides were used at 1.25 μg/ 200,000 cells in a 100 μl volume. Data were acquired using a FACSCanto II (BD Biosciences) and analyzed with FlowJo software (BD Biosciences). Plotted MFI values represent absolute values.
In general terms: Flow cytometry measures light scatter and fluorescence of single cells or particles in a stream.

As for “MAdCAM-Ig: recombinant MAdCAM-1 Ig fusion, R&D Systems [reference compound]”, the “inhibition of PE-conjugated D1D2-Ig⍺tp binding to ⍺4β7 (in words)” value in the assay on ⍺4β7 on RPMI8866 cells is given as “inhibited D1D2-Ig⍺tp binding to ⍺4β7 in a dose dependent manner”. “QKKVEFKIDIVVLA [CD4 P42, linear CD4 D2 peptide, residues 165-178, G β-strand]”: the “binding of FAM-labelled peptide to RA-treated CD8^+ T cells (in words)” value in assay [1] is reported as “reacted strongly in the presence, but not in the absence of Mn^++”.
